According to paper PMC9617852, “In vitro and in vivo assessment of the antioxidant potential of isoxazole derivatives” (Scientific Reports, 2022):
In brackets after ≈: the same amount, converted by molar mass. Where two headings read alike, the source gives them in different places. Marks after values point to notes of the source that are not given here.

Experiments:
[1] = target: T1, porcine pancreatic α-amylase (Sus scrofa, UniProt P00690); assay: α-Amylase inhibitory assay; type: biochemical
T1 construct: purchased Alfa Aesar, Sigma-Aldrich, and Frutarom (UK)
T1 sequence (P00690 16-511): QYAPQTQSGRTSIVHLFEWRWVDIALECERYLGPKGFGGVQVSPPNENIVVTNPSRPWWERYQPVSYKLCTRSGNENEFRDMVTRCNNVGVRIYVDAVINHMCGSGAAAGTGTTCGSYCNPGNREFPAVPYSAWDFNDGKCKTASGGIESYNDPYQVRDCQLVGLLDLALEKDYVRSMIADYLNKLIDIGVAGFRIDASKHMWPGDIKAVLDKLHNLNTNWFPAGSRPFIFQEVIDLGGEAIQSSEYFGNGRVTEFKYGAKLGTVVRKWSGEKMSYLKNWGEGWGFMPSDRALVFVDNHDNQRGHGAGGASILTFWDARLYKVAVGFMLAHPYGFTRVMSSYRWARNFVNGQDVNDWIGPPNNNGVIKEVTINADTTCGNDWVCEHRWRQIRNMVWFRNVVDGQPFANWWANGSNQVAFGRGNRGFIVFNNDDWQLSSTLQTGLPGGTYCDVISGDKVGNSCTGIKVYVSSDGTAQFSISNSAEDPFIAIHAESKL
Procedure: A 5 mg of each fraction was dissolved in a few milliliters of 10% DMSO, and then further dissolved up to 100 ml in 0.02 M Na2HPO4/NaH2PO4, 0.006 M NaCl, pH 6.9 to give finally stock solutions with concentrations of 1000 μg/ml. From these, the following dilutions were prepared of 10, 50, 70, 100, and 500 μg/ml, using 10% DMSO as the diluent. A 0.2 ml volume of 2 units/ml porcine pancreatic α-amylase was mixed with 0.2 ml compounds dilution and was incubated for 10 min at 30 °C. After incubation, 0.2 ml of a freshly prepared 1% starch solution in water was added, and the tubes were then incubated for at least three more minutes. At this point, the reaction was stopped by the addition of 0.2 ml 3,5-dinitro salicylic acid (DNSA) color reagent and was diluted with 5 ml of distilled water, before being heated at 90 °C for 10 min in a water bath. The mixture was then cooled to room temperature, and the absorbance was measured at 540 nm. The blank control was prepared using the same quantities described above, but replacing the compound solution with 0.2 ml buffer.

[2] = target: T2, porcine pancreatic lipase (Sus scrofa, UniProt P00591); assay: Porcine pancreatic lipase inhibition assay; type: biochemical; conditions: substrate p-nitrophenyl butyrate, 37 °C, 410 nm; highest concentration 400 µg/ml
T2 construct: purchased Alfa Aesar, Sigma-Aldrich, and Frutarom (UK)
T2 sequence (P00591 1-450): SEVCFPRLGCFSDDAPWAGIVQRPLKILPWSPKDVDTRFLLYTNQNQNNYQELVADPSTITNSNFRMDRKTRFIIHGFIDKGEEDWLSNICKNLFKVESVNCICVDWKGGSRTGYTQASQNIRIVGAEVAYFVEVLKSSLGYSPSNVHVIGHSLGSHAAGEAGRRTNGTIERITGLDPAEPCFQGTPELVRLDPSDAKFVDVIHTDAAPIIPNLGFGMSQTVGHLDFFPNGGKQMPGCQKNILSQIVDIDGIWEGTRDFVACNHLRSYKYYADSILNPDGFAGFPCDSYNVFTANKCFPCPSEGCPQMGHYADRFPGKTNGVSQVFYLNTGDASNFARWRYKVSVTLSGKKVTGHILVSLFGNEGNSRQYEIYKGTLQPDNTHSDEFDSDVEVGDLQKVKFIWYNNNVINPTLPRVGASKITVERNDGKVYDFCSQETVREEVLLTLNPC
Procedure: Stock solutions of 500 µg/ml were made from each compound in 10% DMSO. From these, a dilution series of five concentrations of 50, 100, 200, 300, and 400 μg/ml were made. A 1 mg/ml stock solution of porcine pancreatic lipase in Tris–HCl buffer was prepared freshly just before use. The substrate, p-nitrophenyl butyrate (PNPB) was prepared by dissolving 20.9 mg in 2 ml acetonitrile. For each working solution, 0.1 ml porcine pancreatic lipase was mixed with 0.2 ml of compound solution from each member of the dilution series. Tris–HCl was added to make the final volume of the working solutions 1 ml, and they were incubated at 37 °C for 15 min. After incubation, 0.1 ml p-nitrophenyl butyrate solution was added to each test tube. The mixture was then incubated for a further 30 min at 37 °C. Pancreatic lipase activity was determined by measuring the hydrolysis of PNPB into p-nitrophenolate at 410 nm, using a UV spectrophotometer. […] Percentage lipase inhibition by compound dilution was calculated with the following equation: Lipaseinhibition%=AB-Ats/AB×100% where, AB is the recorded absorbance of the blank solution, and Ats is the recorded absorbance of the tested sample solution[31].

[3] = DPPH free radical scavenging assay (in vitro antioxidant activity); conditions: DPPH in methanol, 30 min in the dark at 25 °C, absorbance 517 nm
Source text: To determine the antioxidant activities, the 2,2-Diphenyl-1-picrylhydrazyl (DPPH) was used, which is considered one of the most widely used methods for measuring the in vitro antioxidant activity of various chemical compounds. This colorimetric method is accurate, easy to perform, and economical, providing a screening of the general activity of the antioxidants and is based on a stable and synthetic radical, DPPH[15].
When DPPH reacts with an antioxidant compound, its free radical property is lost and its color changes from violet to yellow. The decrease in absorbance at 517 nm induced by antioxidants determines the reduction ability of DPPH.
The free DPPH radical scavenging assay was used to measure the antioxidant activity of the isoxazole derivatives. A 1000 μg/ml stock solution of each compound was prepared in methanol. In addition, a 1000 μg/ml solution of Trolox was also prepared (the reference standard). […] Optical densities were then measured with a spectrophotometer at a wavelength of 517 nm. The following equation was used to calculate % DPPH inhibition for each compound, with Trolox as the standard compound: DPPHinhibition%=AB-Ats/AB×100% where, AB is the recorded absorbance of the blank solution, and Ats is the recorded absorbance of the tested sample solution[25].

[4] = test system: Hep3B; set-up: method as in doi:10.1515/chem-2021-0078; conditions: Hep3B cancer cell line; cited from earlier work
[5] = test system: total antioxidant capacity (TAC) in the blood of mice; assay: In vivo total antioxidant capacity (TAC) in mice, Abcam ab65329 kit; conditions: for TAC (Trolox equivalents): plasma
Procedure: For this purpose, the TAC was determined using a commercially available assay kit (Abcam ab65329), in four groups of mice: 2a treated (5 mg/kg over 6 days, n = 5), 2a treated (10 mg/kg over 6 days, n = 5), quercetin treated (positive control; 10 mg/kg over 6 days, n = 5), and vehicle-treated (negative control; n = 5). All mice were sacrificed seven days after the treatment (or the first administration of the vehicle).
The absorbance values of the used kit were plotted against a serial concentration of Trolox standards in the concentration range of (4–20 nM). […] The generated regression line equation was utilized to calculate the Trolox equivalent total antioxidant activity of the injected compound and positive quercetin control of the experimental mice. The average results of the total antioxidant activity of ten replicates of plasma samples were reported. […] The summary of the results is shown in (Fig. 6).
Twenty mice were divided into four groups randomly, with five mice in each. The first group was administered with our novel compound 2a (5 mg/kg), the second group with the same compound (10 mg/kg), the third group with Quercetin (10 mg/kg) as a positive control, and the fourth group with normal saline (20%) and propylene glycol 80% as a negative control group.
To test the TAC of the novel compound, four groups of mice were injected intraperitoneal (i.p.) and employed with vehicle (80% polyethylene glycol (PG) and 20% normal saline (NS) for 6 days. The first and second groups were injected with 5 and 10 mg/kg/day of 2a compound dissolved in the same vehicle, respectively. The third group was injected with a known antioxidant agent positive control (Quercetin), with 10 mg/kg/day, and the last group was the negative control group (80% polyethylene glycol (PG) and 20% Normal saline (NS). All mice were anesthetized with ketamine (60 mg/kg) and xylazine (5 mg/kg) and sacrificed 24 h after the final injection. Then, the mouse blood sample was collected and centrifuged to collect serum. For long-term stability, serum was frozen at − 20 °C[27],[28].
All mice were sacrificed after seven days of treatment by placing each mouse in a plexiglass chamber with 5% of isoflurane anesthetic drug, for 5 min, and then when the mouse was fully sedated, they were sacrificed by rapid decapitation. Trunk blood was collected in EDTA-coated tubes for use in the kit assay[29],[30].
Using DPPH assay that basis on measures the total antioxidant capacity (TAC) of compounds that can transfer hydrogen atoms. […] Antioxidant compounds, which can transfer an electron to DMPD• + , cause a discoloration of the solution. […] The reduced Cu + ion is chelated with a colorimetric probe giving a broad absorbance peak around 570 nm, proportional to the total antioxidant capacity. […]

[6] = Water solubility; type: physicochemical; conditions: can be dissolved with propylene glycol
[7] = set-up: method as in PMID 33763478; conditions: similar isoxazole series, earlier report; cited from earlier work

## Cc1onc(-c2ccc(F)cc2)c1C(=O)Nc1ccc(C(C)(C)C)cc1 [2a, N-(4-(tert-butyl)phenyl)-3-(4-fluorophenyl)-5-methylisoxazole-4-carboxamide]
[1]; starch substrate, DNSA, 540 nm, highest concentration 500 µg/ml
  IC50: > 1420 µM
[2]
  IC50: > 1140 µM
[3]
  IC50 DPPH: 0.45 ± 0.21 µg/mL (≈ 1.28 µM)
[4]
  IC50 against Hep3B: 9.58 mg/L (≈ 27.2 µM)
[5]; 5 mg/kg i.p. over 6 days
  TAC (Trolox equivalents): 640.2 nmol L–1
[5]; 10 mg/kg i.p. over 6 days
  TAC (Trolox equivalents): 682.9 nmol L–1
[5]; i.p.
  TAC relative to mice treated with the positive control Quercetin: two folds greater
[6]
  water solubility: low water solubility

## O=c1c(O)c(-c2ccc(O)c(O)c2)oc2cc(O)cc(O)c12 [Quercetin, reference compound]
[5]; 10 mg/kg i.p. over 6 days
  TAC (Trolox equivalents): 221.0 nmol L–1

## C[C@H]1O[C@H](O[C@H]2[C@H](O)[C@@H](O)[C@@H](O[C@H]3[C@H](O)[C@@H](O)C(O)O[C@@H]3CO)O[C@@H]2CO)[C@H](O)[C@@H](O)[C@@H]1N[C@H]1C=C(CO)[C@@H](O)[C@H](O)[C@H]1O (stereo partly drawn) [Acarbose, reference compound]
[1]; read-out: percentage of inhibition of α-amylase
  inhibition at 500 µg/mL: 72.5%

## Cc1onc(-c2ccccc2Cl)c1C(=O)Nc1ccc(C(C)(C)C)cc1 [N-(4-(tert-butyl)phenyl)-3-(2-chlorophenyl)-5-methylisoxazole-4-carboxamide]
[7]
  IC50 DPPH: 7.8 mg/L (≈ 21.1 µM)

## Cc1c(C)c2c(c(C)c1O)CCC(C)(C(=O)O)O2 (stereo not drawn) [Trolox, reference compound]
[3]
  IC50 DPPH: 3.10 ± 0.92^a µg/ml
